# Data published in publication PMC12865225 (Clinical and Translational Science, 2026).
# Biological target: T1, OATP1B3 (Homo sapiens, UniProt Q9NPD5)
# T1 construct: expressed in transfected cells; host or cells: HEK293 (recombinant baculovirus-mediated transduction)
# T1 sequence (Q9NPD5 1-702): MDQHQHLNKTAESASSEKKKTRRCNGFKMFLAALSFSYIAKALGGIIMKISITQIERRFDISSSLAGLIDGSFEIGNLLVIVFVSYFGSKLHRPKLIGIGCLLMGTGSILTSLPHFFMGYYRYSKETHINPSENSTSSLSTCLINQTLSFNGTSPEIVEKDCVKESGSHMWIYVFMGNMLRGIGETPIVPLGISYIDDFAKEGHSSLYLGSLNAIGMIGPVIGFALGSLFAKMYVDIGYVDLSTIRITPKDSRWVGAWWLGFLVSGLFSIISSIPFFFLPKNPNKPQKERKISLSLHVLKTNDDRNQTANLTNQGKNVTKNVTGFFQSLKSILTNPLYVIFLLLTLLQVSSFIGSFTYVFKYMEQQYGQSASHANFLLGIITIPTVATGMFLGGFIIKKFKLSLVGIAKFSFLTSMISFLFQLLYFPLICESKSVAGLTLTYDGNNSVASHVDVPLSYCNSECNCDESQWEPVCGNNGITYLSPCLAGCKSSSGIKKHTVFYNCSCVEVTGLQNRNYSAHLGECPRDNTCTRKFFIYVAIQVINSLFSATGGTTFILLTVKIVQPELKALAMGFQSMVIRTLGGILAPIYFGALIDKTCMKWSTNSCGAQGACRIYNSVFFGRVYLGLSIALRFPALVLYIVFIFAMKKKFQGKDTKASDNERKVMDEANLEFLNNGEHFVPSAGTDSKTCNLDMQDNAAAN
# Experiment: OATP1B3 inhibition with fluorescent substrate 8-Fluo-cAMP in HEK293 cells
# Assay type: cell-based
# Details: 2.5 µM 8-Fluo-cAMP, 5 min, 30 min preincubation
# Description: 8- (2- [Fluoresceinyl]aminoethylthio)adenosine- 3', 5'- cyclic monophosphate (8-Fluo-cAMP) was acquired from Biolog Life Science Institute (Bremen, Germany), 4′,5′-dibromofluorescein was acquired from Sigma-Aldrich (St. Louis, MO, USA) and 2′,7′-dichlorofluorescein was acquired from Santa Cruz Biotechnology (Dallas, TX, USA).
# Inhibition studies with fluorescent substrates in OATP transduced HEK293 cells The concentrations of fluorescent probe substrates were 1 µM 2′,7′-dichlorofluorescein for OATP1B1, 2.5 µM 8-Fluo-cAMP for OATP1B3 and 1 µM 4′,5′-dibromofluorescein for OATP2B1, and these concentrations were selected to be within or below of previously reported […]
# reported linear ranges of transport for these substrate-transporter combinations.1,2,4 8-Fluo-cAMP was dissolved in ultrapure water, while dimethyl sulfoxide (DMSO) was used for all other compounds. […] For the quantification of fluorescent substrates, cells were lysed with 120 µl of lysis solution (1% Triton X-100, 5 mM EDTA, 150 mM sodium chloride and 150 mM TRIC-hydrochloride and adjusted to pH 8 with sodium hydroxide) for 30 min at 300 RPM shaking before transferring 80 µl of samples to a transparent 96-well plate containing 20 µl of 0.5 M sodium hydroxide. […] The plates were measured with a fluorescent plate reader (Varioskan LUX from ThermoFisher Scientific). […]
row,IC50 [µM],SMILES
1,4.28,Cc1onc(-c2c(Cl)cccc2Cl)c1C(=O)N[C@@H]1C(=O)N2[C@@H]1SC(C)(C)[C@@H]2C(=O)O [Dicloxacillin]
2,46.3,Cc1onc(-c2c(F)cccc2Cl)c1C(=O)N[C@@H]1C(=O)N2[C@@H]1SC(C)(C)[C@@H]2C(=O)O [Flucloxacillin]
